Measured values taken from the supplement of paper PMC10307832.

Legend:
Experiment in all cases: relative viability (nuclei count vs DMSO), 5 days (fraction); higher = more cells survive
PAC-1 + Decitabine = compound: C=CCc1cccc(/C=N/NC(=O)CN2CCN(Cc3ccccc3)CC2)c1O [PAC-1] + Nc1ncn([C@H]2C[C@H](O)[C@@H](CO)O2)c(=O)n1 [Decitabine] (partner 2 µM)
Outline: (§1)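 Cells from lung cancer lines were seeded into 1536-well plates and, one day later, dosed by pin tool. Treatments were either a single drug or a fixed dose of an anchor drug with five library-drug doses (not always all listed) in √10 steps. After 5 days, nuclei were stained in a one-step fixation (final 0.05% Triton X-100, 1% formaldehyde, 1 ug/ml Hoechst) and counted on 4× images, and relative viability is the treated-to-vehicle nuclei ratio, as the median of duplicate plates.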

BMX-IN-1 + Luminespib = compound: C=CC(=O)Nc1cc(-n2c(=O)ccc3cnc4ccc(-c5ccc(NS(C)(=O)=O)cc5)cc4c32)ccc1C [BMX-IN-1] + CCNC(=O)c1noc(-c2cc(C(C)C)c(O)cc2O)c1-c1ccc(CN2CCOCC2)cc1 [Luminespib] (partner 0.01 µM)
Outline: as §1

BMX-IN-1 + Olaparib = compound: C=CC(=O)Nc1cc(-n2c(=O)ccc3cnc4ccc(-c5ccc(NS(C)(=O)=O)cc5)cc4c32)ccc1C [BMX-IN-1] + O=C(c1cc(Cc2n[nH]c(=O)c3ccccc23)ccc1F)N1CCN(C(=O)C2CC2)CC1 [Olaparib] (partner 8 µM)
Outline: as §1

PAC-1 + Lapatinib = compound: C=CCc1cccc(/C=N/NC(=O)CN2CCN(Cc3ccccc3)CC2)c1O [PAC-1] + CS(=O)(=O)CCNCc1ccc(-c2ccc3ncnc(Nc4ccc(OCc5cccc(F)c5)c(Cl)c4)c3c2)o1 [Lapatinib] (partner 2 µM)
Outline: as §1

Cell Line	relative viability (PAC-1 + Decitabine; first compound 0.02 µM)	relative viability (PAC-1 + Decitabine; first compound 0.06325 µM)	relative viability (PAC-1 + Decitabine; first compound 0.2 µM)	relative viability (PAC-1 + Decitabine; first compound 2 µM)	relative viability (BMX-IN-1 + Luminespib; first compound 0.02 µM)	relative viability (BMX-IN-1 + Luminespib; first compound 0.2 µM)	relative viability (BMX-IN-1 + Luminespib; first compound 0.6325 µM)	relative viability (BMX-IN-1 + Luminespib; first compound 2 µM)	relative viability (BMX-IN-1 + Olaparib; first compound 0.02 µM)	relative viability (BMX-IN-1 + Olaparib; first compound 0.2 µM)	relative viability (BMX-IN-1 + Olaparib; first compound 0.6325 µM)	relative viability (BMX-IN-1 + Olaparib; first compound 2 µM)	relative viability (PAC-1 + Lapatinib; first compound 0.02 µM)	relative viability (PAC-1 + Lapatinib; first compound 0.06325 µM)	relative viability (PAC-1 + Lapatinib; first compound 0.2 µM)	relative viability (PAC-1 + Lapatinib; first compound 2 µM)
NCI-H460	0.436	0.424	0.242	0.451	0.0361	0.0362	0.0299	0.0331	0.481	0.475	0.445	0.439	1.01	1.01	0.916	0.942
NCI-H358	0.229	0.219	0.209	0.16	0.444	0.308	0.405	0.327	0.634	0.743	0.71	0.548	0.473	0.525	0.477	0.388
NCI-H596	0.915	1	0.93	0.942	0.917	1.02	1.02	1.01	0.712	0.641	0.692	0.755	1.04	1.03	1.01	1.05
NCI-H322M	0.691	0.711	0.689	0.751	0.847	0.807	0.756	0.883	0.781	0.836	0.77	0.72	0.526	0.581	0.668	0.576
H3255	0.593	0.849	0.534	0.63	0.851	0.907	1.02	0.927	0.584	0.588	0.548	0.628	0.268	0.256	0.246	0.269
COR-L23	0.487	0.428		0.418	0.807	0.782	1.07	0.548	0.286	0.373	0.439	0.327	1.06	0.963	0.833	0.928
NCI-H2126	0.589	0.584	0.541	0.612	1	0.974	1.17	0.909	0.979	0.897	1.03	0.875	0.745	0.763	0.817	0.816
NCI-H1993	0.737	0.58	0.595	0.541	0.854	0.805	0.829	0.737	1.21	1.15	0.913	1.06	0.774	0.835	0.838	0.887
NCI-H1915	0.266	0.253	0.245	0.27	0.912	1.14	0.785	0.751	0.267	0.27	0.263	0.246	0.971	0.995	0.917	0.92
NCI-H727	0.982	0.809	0.772	0.98	0.33	0.366	0.343	0.243	0.555	0.642	0.703	0.688	0.717	0.674	0.801	0.884
NCI-H1734	0.52	0.554	0.37	0.462	0.199	0.213	0.202	0.147	0.645	0.683	0.689	0.604	1.12	0.987	1.04	1.01
A-427	0.602	0.56	0.532	0.542	1.13	0.844	1.01	1.04	0.709	0.766	0.979	0.783	1.06	1.03	1.08	0.71
NCI-H2170	0.477	0.493	0.42	0.453	0.921	0.77	0.821	0.819	0.587	0.677	0.717	0.624	0.247	0.258	0.255	0.264
NCI-H1437	0.568	0.587	0.583	0.537	1.41	1.23	1.15	1.16	0.662	0.647	0.692	0.664	0.758	0.828	0.751	0.679
PC-3 [JPC-3]	0.938	0.861	0.698	0.77	0.82	0.757	0.709	0.68	1.25	1.46	1.06	1.1	0.416	0.474	0.447	0.465
201T	0.854	0.85	0.836	0.861	1.07	1.1	1.09	0.98	0.84	0.904	0.844	0.83	0.98	1.01	1.1	1.05
PC-14	0.214	0.235	0.172	0.221	0.184	0.107	0.14	0.152	0.265	0.265	0.297	0.266	0.324	0.315	0.275	0.321
